According to US10780101B2, “Amide derivatives of squalamine for the treatment of infections” (VIRBAC, priority 2016, dated 2020):
Values after ≈ are worked out from the molar mass of the structure shown.

Experiments:
CHO-K1 cells = test: WST1 cytotoxicity test on CHO-K1 cells; assay type: cell-based, Chinese hamster; settings: Cricetulus griseus, CHO-K1, 24 h, read-out: IC50 (μg/mL) CHO
Description: Test WST1 was used to measure the cytotoxic activity of the products. This is a colorimetric test which makes it possible to measure the viability and the degree of cell proliferation. It is based on cleavage of the colorless tetrazolium salts WST-1 (4-[3-(4-iodophenyl)-2-(4-nitrophenyl)-2H-5-tetrazolio]-1,3-benzene disulfonate) with mitochondrial dehydrogenases to the yellow-colored formazan derivative, which may be quantified by spectrophotometry at 420-480 nm.
The WST1 test was performed on Chinese hamster ovary cells. The CHO-K1 cells (ATCC, USA) are kept in culture in McCoy's 5A medium supplemented with 10% fetal calf serum, 2 mM of L-glutamine and a mixture of penicillin-streptomycin (100 U/ml: 10 μg/ml). The culture is incubated at 37° C. under an atmosphere enriched in CO2 (5%), and subcultured every two days.
The cells are transferred into 96-well plates (25000 cells/mL) in whole McCoy's 5A medium, and maintained for 24 hours at 37° C. under a humid atmosphere enriched in CO2 (5%). Increasing concentrations of test products are added to the wells in double tests and 8 growth controls containing the cells in the medium alone are included in each series of tests. After 24 hours at 37° C. (5% CO2), the culture medium is removed, the cells are rinsed in phosphate buffer (PBS) and 50 μL of PBS containing 10% of reagent WST1 are added to each well. After 20 minutes of incubation at 37° C., the results are read by spectrophotometry at 450 nm.
The results are expressed in dose-response relationships, modeled by nonlinear regression analysis using the TableCurve software. The 50% inhibitory concentration (IC50) represents the concentration of product that is capable of reducing the cell viability by 50%.

P. aeruginosa (1051575) = test: Potentiation of doxycycline activity (combination MIC); assay type: cell-based, Pseudomonas aeruginosa; settings: in presence of doxycycline 2 μg/mL; 24 hours at 37° C.
[1] = test system: S. aureus Human ATCC 25923; test: MIC determination, S. aureus human ATCC 25923; assay type: cell-based; settings: Staphylococcus aureus, ATCC25923; Gram-positive; Mueller-Hinton medium, 24 h at 37° C.
Description: (§1) A negative control (2 mL of sterile culture medium)
(§2) A positive control (1940 μL of culture medium+40 μL of DMSO+20 μL of the bacterial suspension) from a thawed biological strain (the biological strains are stored at −80° C. in glycerol).
(§3) The tubes were incubated at 37° C. for 24 hours at 100 rpm.
(§4) The microorganisms were handled under a type L2 laboratory fume cupboard and, before any handling, a UV cycle was programmed and only sterile material was used. […] The chemical compounds to be tested were prepared in a DMSO/methanol mixture (50/50) at a concentration of 5 mg/mL.
(§5) After 24 hours of incubation, a measurement of the optical density was taken using a spectrophotometer at 600 nm, collecting 100 μL of the bacterial suspension diluted in 900 μL of the sterile culture medium. This test required the use of a 96-well plate and the required volume of the microbial suspension to be seeded was calculated for an OD corresponding to a value equal to 0.01 in each well. In this plate, the first line corresponded to the negative control (195 μL of sterile culture medium in each well), the second line corresponded to the positive control (seeded culture medium supplemented with 2% of DMSO), and the third line was loaded twice with bacterial suspension; 8 μL of test product were placed in each well. Thereafter, a 0.5 cascade dilution was performed from this line.
(§6) The first column served as inhibition control. A sterile filter was then placed on the microplate, allowing the passage of gases but not of contaminants. The microplate was incubated at 37° C. under a humid atmosphere for 24 hours.
(§7) NB: The medium used is Mueller-Hinton (MH) medium for bacteria. All the tests were performed in duplicate.
(§8) After incubation, the filter was replaced with a transparent film, and an OD reading was then taken in an iEMS plate spectrophotometer at 620 nm. Calculation of the minimum inhibitory concentration (MIC) was performed.

[2] = test system: P. aeruginosa Animal (1051575); test: MIC determination, P. aeruginosa animal (1051575); assay type: cell-based; settings: Pseudomonas aeruginosa; Gram-negative; Mueller-Hinton medium, 24 h at 37° C.
Description: as §1, §2, §3, §4, §5, §6, §7, §8

[3] = test system: E. faecalis Human ATCC 29212; test: MIC determination, E. faecalis human ATCC 29212; assay type: cell-based; settings: Enterococcus faecalis, ATCC29212; Gram-positive; Mueller-Hinton medium, 24 h at 37° C.
Description: as §1, §2, §3, §4, §5, §6, §7, §8

S. aureus Animal (340) = test: MIC determination, S. aureus animal (340); assay type: cell-based; settings: Staphylococcus aureus; Gram-positive; Mueller-Hinton medium, 24 h at 37° C.
Description: as §1, §2, §3, §4, §5, §6, §7, §8

E. coli Animal (1956) = test: MIC determination, E. coli animal (1956); assay type: cell-based; settings: Escherichia coli; Gram-negative; Mueller-Hinton medium, 24 h at 37° C.
Description: as §1, §2, §3, §4, §5, §6, §7, §8

[4] = test system: P. aeruginosa Human ATCC 27853; test: MIC determination, P. aeruginosa human ATCC 27853; assay type: cell-based; settings: Pseudomonas aeruginosa, ATCC27853; Gram-negative; Mueller-Hinton medium, 24 h at 37° C.
Description: as §1, §2, §3, §4, §5, §6, §7, §8

[5] = test system: S. intermedius Animal (1051997); test: MIC determination, S. intermedius animal (1051997); assay type: cell-based; settings: Staphylococcus intermedius; Gram-positive; Mueller-Hinton medium, 24 h at 37° C.
Description: as §1, §2, §3, §4, §5, §6, §7, §8

E. coli Human ATCC 28922 = test: MIC determination, E. coli human ATCC 28922; assay type: cell-based; settings: Escherichia coli, ATCC28922; Gram-negative; Mueller-Hinton medium, 24 h at 37° C.
Description: as §1, §2, §3, §4, §5, §6, §7, §8

| SMILES | IC50 (CHO-K1 cells) [µg/mL] | MIC - P. aeruginosa (1051575): content of compound of formula (I) to restore the doxycycline activity (at 2 μg/mL) (P. aeruginosa (1051575)) [µg/mL] | MIC [1] [µg/mL] | MIC [2] [µg/mL] | MIC [3] [µg/mL] | MIC (S. aureus Animal (340)) [µg/mL] | MIC (E. coli Animal (1956)) [µg/mL] | MIC [4] [µg/mL] | MIC [5] [µg/mL] | MIC (E. coli Human ATCC 28922) [µg/mL] |
| --- | --- | --- | --- | --- | --- | --- | --- | --- | --- | --- |
| CNC(=O)CC[C@@H](C)[C@H]1CCC2C3C(CC[C@@]21C)[C@@]1(C)CC[C@H](NCCCNCCCNCCCN)CC1C[C@H]3O (stereo partly drawn) [(10), 3β-norspermino-N-methylchenodeoxycholamide] | 35 (≈ 60.8 µM) | 1 | 7 (≈ 12.2 µM) | 5 (≈ 8.68 µM) | 14 (≈ 24.3 µM) | 1 (≈ 1.74 µM) | 7 (≈ 12.2 µM) | 28 (≈ 48.6 µM) | 1 (≈ 1.74 µM) | 14 (≈ 24.3 µM) |
| CCN(CC)C(=O)CC[C@@H](C)[C@H]1CCC2C3C(CC[C@@]21C)[C@@]1(C)CC[C@H](NCCCNCCCN)CC1C[C@H]3O (stereo partly drawn) [(13), 3β-norspermidino-N,N-diethylchenodeoxycholamide] | 22 (≈ 39.2 µM) | 2 | 2 (≈ 3.57 µM) | 16 (≈ 28.5 µM) | 2 (≈ 3.57 µM) | 4 (≈ 7.13 µM) | 8 (≈ 14.3 µM) | 16 (≈ 28.5 µM) | 2 (≈ 3.57 µM) | 8 (≈ 14.3 µM) |
| CC(C)NC(=O)CC[C@@H](C)[C@H]1CCC2C3CCC4C[C@@H](NCCNCCNCCNCCNCCN)CC[C@]4(C)C3CC[C@@]21C (stereo partly shown) [(24)] | 35 (≈ 55.4 µM) | 8 | 8 (≈ 12.7 µM) | 128 (≈ 203 µM) | 16 (≈ 25.3 µM) | 8 (≈ 12.7 µM) | 64 (≈ 101 µM) | 128 (≈ 203 µM) | 4 (≈ 6.33 µM) | 32 (≈ 50.6 µM) |
| CC(C)NC(=O)CC[C@@H](C)[C@H]1CCC2C3CCC4C[C@@H](NCCCNCCCNCCCN)CC[C@]4(C)C3CC[C@@]21C (stereo partly drawn) [(17), 3β-norspermino-N-isopropyllithocholamide] | 17 (≈ 28.9 µM) | 2 | 8 (≈ 13.6 µM) | 32 (≈ 54.4 µM) | 8 (≈ 13.6 µM) | 8 (≈ 13.6 µM) | 32 (≈ 54.4 µM) | 64 (≈ 109 µM) | 4 (≈ 6.8 µM) | 16 (≈ 27.2 µM) |
| CCN(CC)C(=O)CC[C@@H](C)[C@H]1CCC2C3C(CC[C@@]21C)[C@@]1(C)CC[C@H](NCCCNCCCNCCCN)CC1C[C@H]3O (stereo partly drawn) [(39), 3β-norspermino-N,N-diethylchenodeoxycholamide] |  | 2 | 2 (≈ 3.24 µM) | 8 (≈ 12.9 µM) |  | 1 (≈ 1.62 µM) | 4 (≈ 6.47 µM) | 15 (≈ 24.3 µM) | 1 (≈ 1.62 µM) | 120 (≈ 194 µM) |
| CC(C)NC(=O)CC[C@@H](C)[C@H]1CCC2C3CCC4C[C@@H](NCCCN(C)CCCN)CC[C@]4(C)C3CC[C@@]21C (stereo partly drawn) [(29), 3β-(bis(3-aminopropyl)methylamine)-N-isopropyllithocholamide] | 6 (≈ 11 µM) | 7 | 14 (≈ 25.7 µM) | 112 (≈ 206 µM) | 28 (≈ 51.4 µM) | 14 (≈ 25.7 µM) | 28 (≈ 51.4 µM) | 112 (≈ 206 µM) | 7 (≈ 12.8 µM) | 28 (≈ 51.4 µM) |
